Results reported in patent publication US20070264247A1, “Use of Human Lysozyme in Preparation of Medicine for Treating Acne” (priority 2004, published 2007).
In brackets after ≈: the same amount, converted by molar mass. Like-named read-outs stand apart in the source and are kept apart here.

How the values were obtained:
Assay in all cases: MIC by double agar dilution method, clinical isolates
Format in all cases: cell-based
[1] = tested on: Staphylococcu epidermidis
Experimental: (§1) Strain: Pathogenic bacteria isolated from clinical laboratory collected from Sichuan, Beijing, 2002.4˜2003.9, assessed using the method of API in our laboratory.
(§2) Test the minimum inhibitory concentration (MIC) of the tested drug against the strains using the double agar dilution method. The tested drug was dissolved in sterile purified water and diluted properly. The drug-containing petri dishes were prepared by spiking 1 ml drug conclusion with melted 9 ml Tris —HCl agarose solid medium, using agar twofold dilution method and obtained the concentration of 4, 2, 1, 0.5, 0.25, 0.125, 0.06, 0.03 . . . 0.001 mg/ml. The strain solution of 10^5 CFU/ml was inoculated on the petri dishes using the multipoint inoculator, cultured for 8-10 h at 37° C., covered the petri dishes using melted 6 ml M-H Medium (50° C.) respectively, cultured for 10 h at 37° C. The minimal concentration of the drug-containing petri dishes which had no bacterium growth was the minimal inhibitory concentration (MIC).

Escherichia coli = tested on: Escherichia coli
Experimental: as §1, §2

Klebsiella pneumoniae = tested on: Klebsiella pneumoniae
Experimental: as §1, §2

Serratia marcescens = tested on: Serratia marcescens
Experimental: as §1, §2

Propionibacterium = tested on: Propionibacterium
Experimental: as §1, §2

Staphylococcus aureus = tested on: Staphylococcus aureus
Experimental: as §1, §2

[2] = Staphylococcu epidermidis MRSE02-3
[3] = Staphylococcu epidermidis MRSE02-4
[4] = Staphylococcu epidermidis MRSE02-5
[5] = Staphylococcu epidermidis MRSE02-6
[6] = Staphylococcu epidermidis MRSE02-10
[7] = Staphylococcu epidermidis MRSE02-11
[8] = Staphylococcu epidermidis MRSE02-12
[9] = Staphylococcu epidermidis MRSE02-15
[10] = Staphylococcu epidermidis MRSE02-17
[11] = Staphylococcu epidermidis MRSE02-18
[12] = Staphylococcu epidermidis MRSE02-20
[13] = Staphylococcu epidermidis MRSE02-20-1
[14] = Staphylococcu epidermidis MRSE02-20-2
[15] = Staphylococcu epidermidis MRSE02-20-3
[16] = Staphylococcu epidermidis MRSE02-20-4
[17] = Staphylococcu epidermidis MRSE02-20-5
[18] = Staphylococcu epidermidis MRSE02-20-6
[19] = Staphylococcu epidermidis MRSE02-20-7
[20] = Staphylococcu epidermidis MRSE02-20-8
[21] = Staphylococcu epidermidis MRSE02-20-9
[22] = Staphylococcu epidermidis MRSE02-21
[23] = Staphylococcu epidermidis MRSE02-22
[24] = Staphylococcu epidermidis MRSE02-29
[25] = Staphylococcu epidermidis MssE25
[26] = Escherichia coli 03-2-41, read-out: MIC
[27] = Escherichia coli 03-2-42, read-out: MIC
[28] = Escherichia coli 03-2-43, read-out: MIC
[29] = Escherichia coli 03-2-45, read-out: MIC
[30] = Escherichia coli 03-2-51, read-out: MIC
[31] = Escherichia coli 03-2-52, read-out: MIC
[32] = Escherichia coli 03-2-53, read-out: MIC
[33] = Escherichia coli 03-2-54, read-out: MIC
[34] = Escherichia coli 03-2-56, read-out: MIC
[35] = Escherichia coli 03-2-57, read-out: MIC
[36] = Escherichia coli 03-2-58, read-out: MIC
[37] = Serratia marcescens 2-31-8 (first line)
[38] = Serratia marcescens 2-31-8 (second line)
[39] = Serratia marcescens 2-31-8 (third line)
[40] = Staphylococcus aureus MRSA02-22, read-out: MIC
[41] = Staphylococcus aureus MRSA02-23
[42] = Staphylococcus aureus MRSA02-26
[43] = Staphylococcus aureus MRSA02-28

CC[C@H]1OC(=O)[C@H](C)[C@@H](O[C@H]2C[C@@](C)(OC)[C@@H](O)[C@H](C)O2)[C@H](C)[C@@H](O[C@@H]2O[C@H](C)C[C@H](N(C)C)[C@H]2O)[C@](C)(OC)C[C@@H](C)C(=O)[C@H](C)[C@@H](O)[C@]1(C)O [CLA, Clarithromycin]
MIC [1, 2]: > 1000 µg/mL
MIC [1, 3]: 500 µg/mL (≈ 668 µM)
MIC [1, 4]: < 1 µg/mL
MIC [1, 5]: < 1 µg/mL
MIC [1, 6]: 1000 µg/mL (≈ 1340 µM)
MIC [1, 7]: < 1 µg/mL
MIC [1, 8]: 8 µg/mL (≈ 10.7 µM)
MIC [1, 9]: 1000 µg/mL (≈ 1340 µM)
MIC [1, 10]: 250 µg/mL (≈ 334 µM)
MIC [1, 11]: < 1 µg/mL
MIC [1, 12]: > 1000 µg/mL
MIC [1, 13]: < 1 µg/mL
MIC [1, 14]: > 1000 µg/mL
MIC [1, 15]: > 1000 µg/mL
MIC [1, 16]: > 1000 µg/mL
MIC [1, 17]: > 1000 µg/mL
MIC [1, 18]: > 1000 µg/mL
MIC [1, 19]: 1000 µg/mL (≈ 1340 µM)
MIC [1, 20]: < 1 µg/mL
MIC [1, 21]: < 1 µg/mL
MIC [1, 22]: < 1 µg/mL
MIC [1, 23]: < 1 µg/mL
MIC [1, 24]: 30 µg/mL (≈ 40.1 µM)
MIC [1, 25]: < 1 µg/mL
MIC (Escherichia coli): 125 µg/mL (≈ 167 µM)
MIC (Escherichia coli; [26]): > 1000 µg/mL
MIC (Escherichia coli; [27]): 63 µg/mL (≈ 84.2 µM)
MIC (Escherichia coli; [28]): 16 µg/mL (≈ 21.4 µM)
MIC (Escherichia coli; [29]): 250 µg/mL (≈ 334 µM)
MIC (Escherichia coli; [30]): > 1000 µg/mL
MIC (Escherichia coli; [31]): > 1000 µg/mL
MIC (Escherichia coli; [32]): 30 µg/mL (≈ 40.1 µM)
MIC (Escherichia coli; [33]): > 1000 µg/mL
MIC (Escherichia coli; [34]): 16 µg/mL (≈ 21.4 µM)
MIC (Escherichia coli; [35]): 32 µg/mL (≈ 42.8 µM)
MIC (Escherichia coli; [36]): > 1000 µg/mL
MIC (Klebsiella pneumoniae; Klebsiella pneumoniae 02-6-14): 63 µg/mL (≈ 84.2 µM)
MIC (Klebsiella pneumoniae; Klebsiella pneumoniae 02-6-18): 500 µg/mL (≈ 668 µM)
MIC (Serratia marcescens; [37]): 8 µg/mL (≈ 10.7 µM)
MIC (Serratia marcescens; [38]): 8 µg/mL (≈ 10.7 µM)
MIC (Serratia marcescens; [39]): 16 µg/mL (≈ 21.4 µM)
MIC (Propionibacterium; Propionibacterium 02-7-4): 2 µg/mL (≈ 2.67 µM)
MIC (Propionibacterium; Propionibacterium 02-7-5): < 1 µg/mL
MIC (Propionibacterium; Propionibacterium 02-7-6): 8 µg/mL (≈ 10.7 µM)
MIC (Propionibacterium; Propionibacterium 02-7-7): 32 µg/mL (≈ 42.8 µM)
MIC (Propionibacterium; Propionibacterium 02-7-9): 8 µg/mL (≈ 10.7 µM)
MIC (Propionibacterium; Propionibacterium 03-2-22): 1000 µg/mL (≈ 1340 µM)
MIC (Propionibacterium; Propionibacterium 03-2-30): > 1000 µg/mL
MIC (Propionibacterium; Propionibacterium 03-2-32): 8 µg/mL (≈ 10.7 µM)
MIC (Propionibacterium; Propionibacterium 03-2-33): > 1000 µg/mL
MIC (Propionibacterium; Propionibacterium 03-2-36): 250 µg/mL (≈ 334 µM)
MIC (Propionibacterium; Propionibacterium 03-2-37): > 1000 µg/mL
MIC (Propionibacterium; Propionibacterium 03-2-39): 500 µg/mL (≈ 668 µM)
MIC (Staphylococcus aureus; Staphylococcus aureus 02-19-5): >1000 µg/mL
MIC (Staphylococcus aureus; [40]): > 1000 µg/mL
MIC (Staphylococcus aureus; [41]): >1000 µg/mL
MIC (Staphylococcus aureus; [42]): >1000 µg/mL
MIC (Staphylococcus aureus; [43]): >1000 µg/mL

CC[C@H]1OC(=O)[C@H](C)[C@@H](O[C@H]2C[C@@](C)(OC)[C@@H](O)[C@H](C)O2)[C@H](C)[C@@H](O[C@@H]2O[C@H](C)C[C@H](N(C)C)[C@H]2O)[C@](C)(O)C[C@@H](C)/C(=N\OCOCCOC)[C@H](C)[C@@H](O)[C@]1(C)O [ROX, Roxithromycin]
MIC [1, 2]: > 1000 µg/mL
MIC [1, 3]: > 1000 µg/mL
MIC [1, 4]: < 1 µg/mL
MIC [1, 5]: < 1 µg/mL
MIC [1, 6]: 1000 µg/mL (≈ 1190 µM)
MIC [1, 7]: < 1 µg/mL
MIC [1, 8]: 125 µg/mL (≈ 149 µM)
MIC [1, 9]: > 1000 µg/mL
MIC [1, 10]: > 1000 µg/mL
MIC [1, 11]: < 1 µg/mL
MIC [1, 12]: > 1000 µg/mL
MIC [1, 13]: < 1 µg/mL
MIC [1, 14]: > 1000 µg/mL
MIC [1, 15]: > 1000 µg/mL
MIC [1, 16]: > 1000 µg/mL
MIC [1, 17]: > 1000 µg/mL
MIC [1, 18]: > 1000 µg/mL
MIC [1, 19]: 1000 µg/mL (≈ 1190 µM)
MIC [1, 20]: < 1 µg/mL
MIC [1, 21]: < 1 µg/mL
MIC [1, 22]: < 1 µg/mL
MIC [1, 23]: < 1 µg/mL
MIC [1, 24]: 500 µg/mL (≈ 597 µM)
MIC [1, 25]: < 1 µg/mL
MIC (Escherichia coli; [26]): > 1000 µg/mL
MIC (Escherichia coli; [27]): > 1000 µg/mL
MIC (Escherichia coli; [28]): 250 µg/mL (≈ 299 µM)
MIC (Escherichia coli; [29]): 500 µg/mL (≈ 597 µM)
MIC (Escherichia coli; [30]): > 1000 µg/mL
MIC (Escherichia coli; [31]): 250 µg/mL (≈ 299 µM)
MIC (Escherichia coli; [32]): 250 µg/mL (≈ 299 µM)
MIC (Escherichia coli; [33]): 1000 µg/mL (≈ 1190 µM)
MIC (Escherichia coli; [34]): 250 µg/mL (≈ 299 µM)
MIC (Escherichia coli; [35]): 250 µg/mL (≈ 299 µM)
MIC (Escherichia coli; [36]): 500 µg/mL (≈ 597 µM)
MIC (Escherichia coli; Escherichia coli 03-2-59, read-out: MIC): 250 µg/mL (≈ 299 µM)
MIC (Klebsiella pneumoniae; Klebsiella pneumoniae 02-6-14): > 1000 µg/mL
MIC (Klebsiella pneumoniae; Klebsiella pneumoniae 02-6-18): 1000 µg/mL (≈ 1190 µM)
MIC (Serratia marcescens; [37]): 16 µg/mL (≈ 19.1 µM)
MIC (Serratia marcescens; [38]): 16 µg/mL (≈ 19.1 µM)
MIC (Serratia marcescens; [39]): 16 µg/mL (≈ 19.1 µM)
MIC (Propionibacterium; Propionibacterium 02-7-4): 2 µg/mL (≈ 2.39 µM)
MIC (Propionibacterium; Propionibacterium 02-7-5): < 1 µg/mL
MIC (Propionibacterium; Propionibacterium 02-7-6): 250 µg/mL (≈ 299 µM)
MIC (Propionibacterium; Propionibacterium 02-7-7): 250 µg/mL (≈ 299 µM)
MIC (Propionibacterium; Propionibacterium 02-7-9): 16 µg/mL (≈ 19.1 µM)
MIC (Propionibacterium; Propionibacterium 03-2-22): 1000 µg/mL (≈ 1190 µM)
MIC (Propionibacterium; Propionibacterium 03-2-30): > 1000 µg/mL
MIC (Propionibacterium; Propionibacterium 03-2-32): 500 µg/mL (≈ 597 µM)
MIC (Propionibacterium; Propionibacterium 03-2-33): > 1000 µg/mL
MIC (Propionibacterium; Propionibacterium 03-2-36): 500 µg/mL (≈ 597 µM)
MIC (Propionibacterium; Propionibacterium 03-2-37): 1000 µg/mL (≈ 1190 µM)
MIC (Propionibacterium; Propionibacterium 03-2-39): 1000 µg/mL (≈ 1190 µM)
MIC (Staphylococcus aureus; Staphylococcus aureus 02-19-5): >1000 µg/mL
MIC (Staphylococcus aureus; [40]): > 1000 µg/mL
MIC (Staphylococcus aureus; [41]): >1000 µg/mL
MIC (Staphylococcus aureus; [42]): >1000 µg/mL
MIC (Staphylococcus aureus; [43]): >1000 µg/mL
